The values that follow come from patent publication US7220735B2, “Benzimidazolone histamine H3 antagonists” (Schering Corporation, priority 2002, dated 2007).

The target in the assay is T1, H3 receptors (Cavia porcellus, UniProt Q9JI35).
T1 construct: The source of the H3 receptors in this experiment was guinea pig brain; from tissue; host or cells: guinea pig brain membranes
The experiment in a line: H3-Receptor Binding Assay (guinea pig brain membranes). The conditions noted are these: 3 nM [3H]R-α-methyl histamine or 3 nM [3H]Nα-methyl histamine, 30° C., 30 min. How it is done:
The source of the H3 receptors in this experiment was guinea pig brain. The animals weighed 400–600 g. The brain tissue was homogenized with a solution of 50 mM Tris, pH 7.5. The final concentration of tissue in the homogenization buffer was 10% w/v. […] The resulting supernatants were then centrifuged at 50,000×g for 20 min. in order to sediment the membranes, which were next washed three times in homogenization buffer (50,000×g for 20 min. each). The membranes were frozen and stored at −70° C. until needed.
All compounds to be tested were dissolved in DMSO and then diluted into the binding buffer (50 mM Tris, pH 7.5) such that the final concentration was 2 μg/ml with 0.1% DMSO. Membranes were then added (400 μg of protein) to the reaction tubes. The reaction was started by the addition of 3 nM [^3H]R-α-methyl histamine (8.8 Ci/mmol) or 3 nM [^3H]N^α-methyl histamine (80 Ci/mmol) and continued under incubation at 30° C. for 30 min. Bound ligand was separated from unbound ligand by filtration, and the amount of radioactive ligand bound to the membranes was quantitated by liquid scintillation spectrometry.

The structures appear in SMILES notation.

T1 sequence (Q9JI35 whole entry): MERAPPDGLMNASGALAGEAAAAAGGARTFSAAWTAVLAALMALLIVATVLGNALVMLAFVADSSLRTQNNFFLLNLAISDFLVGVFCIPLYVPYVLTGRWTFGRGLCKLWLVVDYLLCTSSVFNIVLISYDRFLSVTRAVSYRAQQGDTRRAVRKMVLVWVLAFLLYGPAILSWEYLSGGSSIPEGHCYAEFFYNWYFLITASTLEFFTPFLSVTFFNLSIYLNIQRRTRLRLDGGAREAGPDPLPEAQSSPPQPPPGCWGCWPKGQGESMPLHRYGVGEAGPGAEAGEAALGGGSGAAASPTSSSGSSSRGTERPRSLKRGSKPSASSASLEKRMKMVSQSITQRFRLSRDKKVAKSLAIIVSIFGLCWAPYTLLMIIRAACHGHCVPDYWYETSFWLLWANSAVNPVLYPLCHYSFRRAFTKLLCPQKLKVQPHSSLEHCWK

On to `O=C(C1CCN(Cc2ccncc2)CC1)N1CCC(n2c(=O)n(CCn3cccc3)c3ccccc32)CC1` [Example 1AL], for which the Ki (in general, a measure of affinity in units of concentration, obtained from inhibition or displacement) amounted to 0.2 nM.
